# Test results published in PubChem BioAssay AID328 (DTP/NCI, 2004).
# Several values for one entry are separate records, joined by “and”; a condition that tells them apart may be missing. Equal entries are not always repeated. Toxic doses and inconclusive results are not listed.
# Tested on: BDF1 mice, P388 leukemia ip, median survival T/C
# Test: NCI In Vivo Anticancer Drug Screen. Data for tumor model P388 Leukemia (intraperitoneal) in B6D2F1 (BDF1) mice
# Conditions: endpoint: median survival time, higher = longer survival
# Summary of the method: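 Antitumour effect was judged in vivo: survival in drug-treated mice, normalised to that of vehicle-dosed controls, gives the reported T/C.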
# [1] = dose: 25.0 mg/kg/injection, schedule: Q04DX003 (ip), vehicle: Klucel (hydroxypropylcellulose) (HPC)
# [2] = dose: 100.0 mg/kg/injection, schedule: Q04DX003 (ip), vehicle: Klucel (hydroxypropylcellulose) (HPC)
# [3] = dose: 50.0 mg/kg/injection, schedule: Q01DX009 (ip), vehicle: saline with Tween-80
# [4] = dose: 100.0 mg/kg/injection, schedule: Q01DX009 (ip), vehicle: saline with Tween-80
# [5] = dose: 100.0 mg/kg/injection, schedule: Q04DX003 (ip), vehicle: saline with Tween-80
# [6] = dose: 200.0 mg/kg/injection, schedule: Q01DX009 (ip), vehicle: saline with Tween-80
# [7] = dose: 200.0 mg/kg/injection, schedule: Q04DX003 (ip), vehicle: saline with Tween-80
# [8] = dose: 400.0 mg/kg/injection, schedule: Q01DX009 (ip), vehicle: saline with Tween-80
# [9] = dose: 400.0 mg/kg/injection, schedule: Q04DX003 (ip), vehicle: saline with Tween-80
# [10] = dose: 100.0 mg/kg/injection, schedule: Q01DX009 (ip), vehicle: Klucel (hydroxypropylcellulose) (HPC)
# [11] = dose: 200.0 mg/kg/injection, schedule: Q04DX003 (ip), vehicle: Klucel (hydroxypropylcellulose) (HPC)
# [12] = dose: 400.0 mg/kg/injection, schedule: Q01DX009 (ip), vehicle: Klucel (hydroxypropylcellulose) (HPC)
# [13] = dose: 400.0 mg/kg/injection, schedule: Q04DX003 (ip), vehicle: Klucel (hydroxypropylcellulose) (HPC)
smiles,measurement,setting,value
C=C(CCCCC)C(=O)/C=C/c1ccc(Cl)cc1,T/C,"dose: 100.0 mg/kg/injection, schedule: Q01DX001 (ip), vehicle: Klucel (hydroxypropylcellulose) (HPC)",109 % of control
same,T/C,"dose: 200.0 mg/kg/injection, schedule: Q01DX001 (ip), vehicle: Klucel (hydroxypropylcellulose) (HPC)",109 % of control
same,T/C,"dose: 400.0 mg/kg/injection, schedule: Q01DX001 (ip), vehicle: Klucel (hydroxypropylcellulose) (HPC)",118 % of control
Cn1cnnc1N,T/C,"dose: 100.0 mg/kg/injection, schedule: Q01DX001 (ip), vehicle: saline",100 % of control
same,T/C,"dose: 200.0 mg/kg/injection, schedule: Q01DX001 (ip), vehicle: saline",95 % of control
same,T/C,"dose: 400.0 mg/kg/injection, schedule: Q01DX001 (ip), vehicle: saline",104 % of control
CC(=O)OCC(=O)[C@@]1(O)[C@H](C)C[C@H]2[C@@H]3C=C(C)C4=Cc5c(cnn5-c5ccc(F)cc5)C[C@]4(C)[C@H]3[C@@H](O)C[C@@]21C,T/C,"dose: 0.19 mg/kg/injection, schedule: Q01DX009 (sc), vehicle: steriod suspending solution",120 % of control
same,T/C,"dose: 0.39 mg/kg/injection, schedule: Q01DX009 (sc), vehicle: steriod suspending solution",110 % of control
same,T/C,"dose: 0.58 mg/kg/injection, schedule: Q04DX003 (sc), vehicle: steriod suspending solution",118 % of control
same,T/C,"dose: 0.78 mg/kg/injection, schedule: Q01DX009 (sc), vehicle: steriod suspending solution",90 % of control
same,T/C,"dose: 1.17 mg/kg/injection, schedule: Q04DX003 (sc), vehicle: steriod suspending solution",118 % of control
same,T/C,"dose: 2.34 mg/kg/injection, schedule: Q04DX003 (sc), vehicle: steriod suspending solution",118 % of control
same,T/C,"dose: 3.4 mg/kg/injection, schedule: Q04DX003 (sc), vehicle: steriod suspending solution",100 % of control
same,T/C,"dose: 5.3 mg/kg/injection, schedule: Q04DX003 (sc), vehicle: steriod suspending solution",90 % of control
same,T/C,"dose: 6.0 mg/kg/injection, schedule: Q04DX003 (ip), vehicle: Klucel (hydroxypropylcellulose) (HPC)",105 % of control
same,T/C,"dose: 12.0 mg/kg/injection, schedule: Q04DX003 (ip), vehicle: Klucel (hydroxypropylcellulose) (HPC)",105 % of control
same,T/C,[1],90 % of control
same,T/C,[2],90 % of control
O=C(O)CC(NC(=O)OCc1ccccc1)C(=O)OCc1ccccc1 (stereo not given),T/C,[3],92 % of control
same,T/C,[4],111 % of control
same,T/C,[5],104 % of control
same,T/C,[6],111 % of control
same,T/C,[7],113 % of control
same,T/C,[8],100 % of control
same,T/C,[9],90 % of control
Cc1cc(N(CCCl)CCCl)ccc1C=Nc1ccccc1-c1ccccc1,T/C,[10],120 % of control
same,T/C,[2],112 % of control
same,T/C,[11],116 % of control
same,T/C,"dose: 266.0 mg/kg/injection, schedule: Q04DX003 (ip), vehicle: Klucel (hydroxypropylcellulose) (HPC)",120 % of control
same,T/C,[12],150 % of control and 158 % of control
same,T/C,[13],95 % of control
same,T/C,"dose: 600.0 mg/kg/injection, schedule: Q01DX009 (ip), vehicle: Klucel (hydroxypropylcellulose) (HPC)",200 % of control
same,T/C,"dose: 600.0 mg/kg/injection, schedule: Q04DX003 (ip), vehicle: Klucel (hydroxypropylcellulose) (HPC)",154 % of control
CCN1/C(=C/C=C/c2oc3ccccc3[n+]2CC)Oc2ccccc21,T/C,"dose: 0.13 mg/kg/injection, schedule: Q01DX010 (ip), vehicle: saline",118 % of control
same,T/C,"dose: 0.15 mg/kg/injection, schedule: Q01DX009 (ip), vehicle: saline",108 % of control
same,T/C,"dose: 0.25 mg/kg/injection, schedule: Q01DX010 (ip), vehicle: saline",118 % of control
same,T/C,"dose: 0.6 mg/kg/injection, schedule: Q01DX009 (ip), vehicle: Klucel (hydroxypropylcellulose) (HPC)",165 % of control
same,T/C,"dose: 37.5 micrograms/kg/injection, schedule: Q01DX009 (ip), vehicle: Klucel (hydroxypropylcellulose) (HPC)",108 % of control
same,T/C,"dose: 75.0 micrograms/kg/injection, schedule: Q01DX009 (ip), vehicle: Klucel (hydroxypropylcellulose) (HPC)",104 % of control
same,T/C,"dose: 150.0 micrograms/kg/injection, schedule: Q01DX009 (ip), vehicle: Klucel (hydroxypropylcellulose) (HPC)",116 % of control
COc1ccc(CC(=O)NCCc2ccc3cc(OC)c(OC)cc3c2)cc1OC,T/C,[4],95 % of control
same,T/C,[6],95 % of control
same,T/C,[8],91 % of control
CN(C)P(=S)(N(C)C)N1CCC1,T/C,[3],96 % of control
same,T/C,[4],90 % of control
same,T/C,[6],109 % of control
CC/C(=C(/CC)c1ccc(O)cc1)c1ccc(O)cc1,T/C,"dose: 12.5 mg/kg/injection, schedule: Q01DX009 (ip), vehicle: carboxymethylcellulose (CMC)",105 % of control
same,T/C,"dose: 12.5 mg/kg/injection, schedule: Q01DX010 (ip), vehicle: saline",100 % of control and 110 % of control
same,T/C,"dose: 25.0 mg/kg/injection, schedule: Q01DX009 (ip), vehicle: carboxymethylcellulose (CMC)",89 % of control and 93 % of control
same,T/C,"dose: 25.0 mg/kg/injection, schedule: Q01DX010 (ip), vehicle: saline",110 % of control
same,T/C,"dose: 50.0 mg/kg/injection, schedule: Q01DX008 (ip), vehicle: saline with Tween-80",114 % of control and 120 % of control
same,T/C,"dose: 50.0 mg/kg/injection, schedule: Q01DX009 (ip), vehicle: carboxymethylcellulose (CMC)",97 % of control
same,T/C,"dose: 50.0 mg/kg/injection, schedule: Q01DX010 (ip), vehicle: saline",100 % of control and 115 % of control
same,T/C,"dose: 100.0 mg/kg/injection, schedule: Q01DX008 (ip), vehicle: saline with Tween-80",110 % of control and 116 % of control
same,T/C,"dose: 100.0 mg/kg/injection, schedule: Q01DX009 (ip), vehicle: carboxymethylcellulose (CMC)",88 % of control and 90 % of control
same,T/C,"dose: 100.0 mg/kg/injection, schedule: Q01DX010 (ip), vehicle: saline",90 % of control and 95 % of control
same,T/C,"dose: 200.0 mg/kg/injection, schedule: Q01DX008 (ip), vehicle: saline with Tween-80",111 % of control and 112 % of control
same,T/C,"dose: 200.0 mg/kg/injection, schedule: Q01DX009 (ip), vehicle: carboxymethylcellulose (CMC)",114 % of control
same,T/C,"dose: 400.0 mg/kg/injection, schedule: Q01DX008 (ip), vehicle: saline with Tween-80",112 % of control
COc1ccc(Br)cc1/C=N/N=C/c1cc(Br)ccc1OC,T/C,[4],95 % of control
same,T/C,[6],95 % of control
same,T/C,[8],95 % of control
CCOC(=O)C[Si](C)(C)C,T/C,[1],99 % of control
same,T/C,"dose: 50.0 mg/kg/injection, schedule: Q04DX003 (ip), vehicle: Klucel (hydroxypropylcellulose) (HPC)",99 % of control
same,T/C,[2],97 % of control
same,T/C,[11],101 % of control
same,T/C,[13],109 % of control
C[C@]12C[C@@H](F)C(=O)C[C@@H]1CC[C@@H]1[C@@H]2CC[C@]2(C)[C@@H](O)CC[C@@H]12,T/C,[4],95 % of control
same,T/C,[5],110 % of control
same,T/C,[6],95 % of control
same,T/C,[7],100 % of control
same,T/C,[8],100 % of control
same,T/C,[9],105 % of control
COc1cc2c(c(OC)c1OC)-c1cc3c(cc1C(=O)[C@@H]1COC(=O)[C@@H]21)OCO3,T/C,"dose: 1.3 mg/kg/injection, schedule: Q01DX009 (ip), vehicle: saline",109 % of control
same,T/C,"dose: 2.0 mg/kg/injection, schedule: Q01DX009 (ip), vehicle: saline",95 % of control
same,T/C,"dose: 3.0 mg/kg/injection, schedule: Q01DX009 (ip), vehicle: saline",95 % of control
same,T/C,"dose: 5.3 mg/kg/injection, schedule: Q01DX009 (ip), vehicle: saline with Tween-80",100 % of control
same,T/C,"dose: 8.0 mg/kg/injection, schedule: Q01DX009 (ip), vehicle: saline with Tween-80",100 % of control
same,T/C,"dose: 12.0 mg/kg/injection, schedule: Q01DX009 (ip), vehicle: saline with Tween-80",95 % of control
same,T/C,"dose: 21.4 mg/kg/injection, schedule: Q01DX009 (ip), vehicle: saline",105 % of control
same,T/C,"dose: 32.0 mg/kg/injection, schedule: Q01DX009 (ip), vehicle: saline",110 % of control
same,T/C,"dose: 48.0 mg/kg/injection, schedule: Q01DX009 (ip), vehicle: saline",110 % of control
O=c1nc(Oc2ccccc2)nc2cnccn12,T/C,[3],88 % of control
same,T/C,[4],88 % of control
C1CCC2(CC1)OCCO2,T/C,"dose: 25.0 mg/kg/injection, schedule: Q01DX009 (ip), vehicle: saline with Tween-80",87 % of control
same,T/C,[3],97 % of control
same,T/C,[4],100 % of control
same,T/C,[6],106 % of control
O=C(Nc1ccc(Nc2ccncc2)cc1)c1ccc(Nc2ccnc3ccc([N+](=O)[O-])cc23)cc1,T/C,[10],90 % of control
same,T/C,[2],100 % of control
same,T/C,"dose: 200.0 mg/kg/injection, schedule: Q01DX009 (ip), vehicle: Klucel (hydroxypropylcellulose) (HPC)",90 % of control
same,T/C,[11],100 % of control
same,T/C,[12],95 % of control
same,T/C,[13],90 % of control
O=C(NC(=O)c1c(F)cccc1F)Nc1ccc(Cl)nc1,T/C,[4],91 % of control
